Reference: PMC6272887, “Discovery of Potent c-MET Inhibitors with New Scaffold Having Different Quinazoline, Pyridine and Tetrahydro-Pyridothienopyrimidine Headgroups” (Molecules, 2016)

Legend:
VEGFR-2 = molecular target: T1, VEGFR-2 (Homo sapiens, UniProt P35968); test: In vitro kinase assay (HTScan VEGF Receptor 2 Kinase Assay Kit); assay type: biochemical; details: ATP 10 µM; read-out: Enzyme, IC50, µM VEGFR-2
T1 construct: purchased Cell Signaling Technology, Inc
Description: In vitro kinase inhibitory ability was determined using HTScan MET Kinase Assay Kit, HTScan VEGF Receptor 2 Kinase Assay Kit, HTScan c-Kit Kinase Assay Kit, HTScan PDGF Receptor β Kinase Assay Kit and HTScan EGFR Kinase Assay Kit(purchased from Cell Signaling Technology, Inc. Danvers, MA, USA) by colorimetric ELISA assay according to the manufacturer’s instructions. Briefly, reaction cocktail containing recombinant human MET kinase or other kinases were incubated with various concentrations of tested compounds or DMSO (0.1%) for 5 min at room temperature, and then ATP/substrate peptide cocktail was added to the pre-incubated reaction cocktail. After incubation at room temperature for 30 min, the reaction was stopped and transferred to a 96-wellstreptavidin-coated plate, and incubated for 1 h at room temperature. Primary antibody (phosphorylated tyrosine monoclonal antibody (pTyr-100), 1:1000 in PBS/T with 1% bovine serum albumin (BSA)) was added into per well until the wells were washed thrice with PBS/T. After incubated at room temperature for 1 h, phosphorylation of the substrate was monitored with HRP-labeled anti-mouse IgG antibody (1:500 in PBS/T with 1% BSA), followed by a chromogenic reaction. Finally, the kinase assay was detected at 450 nm with microplate reader. The reaction processed with only DMSO (0.1%) served as a vehicle control. […]

PDGFR-b = molecular target: T2, PDGFR-b (Homo sapiens, UniProt P09619); test: In vitro kinase assay (HTScan PDGF Receptor β Kinase Assay Kit); assay type: biochemical; details: for IC50: ATP 10 µM, read-out: Enzyme, IC50, µM PDGFR-b; for selectivity against PDGFR-b: relative to c-MET
T2 construct: purchased Cell Signaling Technology, Inc
T2 sequence (P09619 33-1106): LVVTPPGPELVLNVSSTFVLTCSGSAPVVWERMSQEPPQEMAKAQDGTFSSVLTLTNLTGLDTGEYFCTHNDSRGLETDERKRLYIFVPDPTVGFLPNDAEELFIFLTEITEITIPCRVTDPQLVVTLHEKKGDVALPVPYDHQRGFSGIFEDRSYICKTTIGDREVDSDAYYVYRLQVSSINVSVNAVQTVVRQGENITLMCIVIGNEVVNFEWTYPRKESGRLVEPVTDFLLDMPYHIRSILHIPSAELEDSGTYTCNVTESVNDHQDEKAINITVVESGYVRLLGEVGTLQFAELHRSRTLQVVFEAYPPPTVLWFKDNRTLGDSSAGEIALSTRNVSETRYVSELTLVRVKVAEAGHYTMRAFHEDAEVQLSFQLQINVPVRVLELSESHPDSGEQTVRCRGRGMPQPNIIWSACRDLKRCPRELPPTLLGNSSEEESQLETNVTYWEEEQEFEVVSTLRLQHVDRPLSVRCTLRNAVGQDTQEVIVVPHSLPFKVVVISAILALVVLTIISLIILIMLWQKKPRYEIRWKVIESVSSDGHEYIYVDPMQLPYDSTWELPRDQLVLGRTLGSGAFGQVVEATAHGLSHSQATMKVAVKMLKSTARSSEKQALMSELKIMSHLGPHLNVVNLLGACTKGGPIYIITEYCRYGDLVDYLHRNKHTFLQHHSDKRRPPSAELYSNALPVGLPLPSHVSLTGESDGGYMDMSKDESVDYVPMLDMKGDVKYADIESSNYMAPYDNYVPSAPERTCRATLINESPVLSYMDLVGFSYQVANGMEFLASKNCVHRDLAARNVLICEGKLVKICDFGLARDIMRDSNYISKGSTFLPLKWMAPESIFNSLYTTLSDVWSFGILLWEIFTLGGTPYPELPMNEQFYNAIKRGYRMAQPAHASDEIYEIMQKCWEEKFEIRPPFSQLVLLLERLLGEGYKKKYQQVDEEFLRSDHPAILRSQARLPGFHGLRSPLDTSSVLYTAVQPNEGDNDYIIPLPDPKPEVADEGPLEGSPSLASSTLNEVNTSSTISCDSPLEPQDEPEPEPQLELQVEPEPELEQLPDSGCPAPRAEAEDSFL
Description: (§1) In vitro kinase inhibitory ability was determined using HTScan MET Kinase Assay Kit, HTScan VEGF Receptor 2 Kinase Assay Kit, HTScan c-Kit Kinase Assay Kit, HTScan PDGF Receptor β Kinase Assay Kit and HTScan EGFR Kinase Assay Kit(purchased from Cell Signaling Technology, Inc. Danvers, MA, USA) by colorimetric ELISA assay according to the manufacturer’s instructions. Briefly, reaction cocktail containing recombinant human MET kinase or other kinases were incubated with various concentrations of tested compounds or DMSO (0.1%) for 5 min at room temperature, and then ATP/substrate peptide cocktail was added to the pre-incubated reaction cocktail. After incubation at room temperature for 30 min, the reaction was stopped and transferred to a 96-wellstreptavidin-coated plate, and incubated for 1 h at room temperature. Primary antibody (phosphorylated tyrosine monoclonal antibody (pTyr-100), 1:1000 in PBS/T with 1% bovine serum albumin (BSA)) was added into per well until the wells were washed thrice with PBS/T. After incubated at room temperature for 1 h, phosphorylation of the substrate was monitored with HRP-labeled anti-mouse IgG antibody (1:500 in PBS/T with 1% BSA), followed by a chromogenic reaction. Finally, the kinase assay was detected at 450 nm with microplate reader. The reaction processed with only DMSO (0.1%) served as a vehicle control. […] The kinase assay was performed thrice independently.

[1] = tested on: HeLa (human cervical carcinoma); test: Cell proliferative assay (MTT), HeLa; assay type: cell-based; details: Homo sapiens, HeLa, HeLa cells, read-out: Proliferative Inhibition (IC50, µM) HeLa
Description: (§2) The anti-proliferative activities of synthesized compounds against HeLa, Hep-G2 and MCF-7 cells were evaluated by MTT assay. HeLa cells were grown to log phase in RPMI 1640 medium supplemented with 10% fetal bovine serum. Hep-G2 and MCF-7 cells were grown to log phase in DMEM medium supplemented with 10% fetal bovine serum. After diluting to […] with the complete medium, 100 µL of the obtained cell suspension was added to each well of 96-well culture plates. The subsequent incubation was permitted at 37 °C, 5% CO2 atmosphere for 48 h before the anti-proliferative assessments. Tested samples at pre-set concentrations were added to 6 wells. Before the anti-proliferative assessments, 20 µL of PBS containing 2.5 mg∙mL^−1 of MTT was added to each well. Four h later, 100 µL extraction solution (DMSO) was added to each well and the optical density was measured at a wavelength of 570 nm on an ELISA microplate reader.

EGFR = molecular target: T3, EGFR (Homo sapiens, UniProt P00533); test: In vitro kinase assay (HTScan EGFR Kinase Assay Kit); assay type: biochemical; details: for IC50: ATP 10 µM, read-out: Enzyme, IC50, µM EGFR; for selectivity against EGFR: relative to c-MET
T3 construct: purchased Cell Signaling Technology, Inc
T3 sequence (P00533 25-1210): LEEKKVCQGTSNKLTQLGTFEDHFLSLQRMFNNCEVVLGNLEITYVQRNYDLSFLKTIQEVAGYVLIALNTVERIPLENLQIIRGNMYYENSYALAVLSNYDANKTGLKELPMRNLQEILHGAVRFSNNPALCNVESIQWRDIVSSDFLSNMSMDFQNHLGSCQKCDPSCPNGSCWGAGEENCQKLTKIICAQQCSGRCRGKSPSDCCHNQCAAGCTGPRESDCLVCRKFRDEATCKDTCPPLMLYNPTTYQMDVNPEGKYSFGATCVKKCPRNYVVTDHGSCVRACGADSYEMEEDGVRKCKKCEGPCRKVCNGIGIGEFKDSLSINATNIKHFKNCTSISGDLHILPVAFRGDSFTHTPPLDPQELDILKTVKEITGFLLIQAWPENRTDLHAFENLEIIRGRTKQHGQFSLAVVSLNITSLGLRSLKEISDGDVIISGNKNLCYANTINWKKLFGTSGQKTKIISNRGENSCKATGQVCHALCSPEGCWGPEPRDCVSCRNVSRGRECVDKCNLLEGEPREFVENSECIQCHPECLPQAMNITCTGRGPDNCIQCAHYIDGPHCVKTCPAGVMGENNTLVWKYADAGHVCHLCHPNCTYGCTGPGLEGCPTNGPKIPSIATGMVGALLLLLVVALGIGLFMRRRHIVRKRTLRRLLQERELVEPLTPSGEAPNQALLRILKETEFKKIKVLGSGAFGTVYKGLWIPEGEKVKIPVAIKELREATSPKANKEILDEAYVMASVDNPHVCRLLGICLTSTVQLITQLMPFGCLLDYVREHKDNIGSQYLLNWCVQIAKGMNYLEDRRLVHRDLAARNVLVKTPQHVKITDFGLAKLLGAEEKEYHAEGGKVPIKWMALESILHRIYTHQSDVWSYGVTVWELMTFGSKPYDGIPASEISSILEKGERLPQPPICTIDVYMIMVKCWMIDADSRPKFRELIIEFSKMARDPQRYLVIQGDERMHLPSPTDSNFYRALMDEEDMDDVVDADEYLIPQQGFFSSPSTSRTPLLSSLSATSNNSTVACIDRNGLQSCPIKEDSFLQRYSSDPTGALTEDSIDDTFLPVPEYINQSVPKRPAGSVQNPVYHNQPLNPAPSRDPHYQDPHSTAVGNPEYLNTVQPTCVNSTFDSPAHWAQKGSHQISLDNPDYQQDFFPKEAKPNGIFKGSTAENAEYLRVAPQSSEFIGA
Description: as §1

c-MET [2] = molecular target: T4, c-MET (Homo sapiens, UniProt P08581); test: In vitro kinase assay (HTScan MET Kinase Assay Kit, colorimetric ELISA); assay type: biochemical; details: ATP 10 µM; three independent determinations; read-out: Enzymatic Inhibition (IC50, µM) c-MET
T4 construct: purchased Cell Signaling Technology, Inc
T4 sequence (P08581 25-1390): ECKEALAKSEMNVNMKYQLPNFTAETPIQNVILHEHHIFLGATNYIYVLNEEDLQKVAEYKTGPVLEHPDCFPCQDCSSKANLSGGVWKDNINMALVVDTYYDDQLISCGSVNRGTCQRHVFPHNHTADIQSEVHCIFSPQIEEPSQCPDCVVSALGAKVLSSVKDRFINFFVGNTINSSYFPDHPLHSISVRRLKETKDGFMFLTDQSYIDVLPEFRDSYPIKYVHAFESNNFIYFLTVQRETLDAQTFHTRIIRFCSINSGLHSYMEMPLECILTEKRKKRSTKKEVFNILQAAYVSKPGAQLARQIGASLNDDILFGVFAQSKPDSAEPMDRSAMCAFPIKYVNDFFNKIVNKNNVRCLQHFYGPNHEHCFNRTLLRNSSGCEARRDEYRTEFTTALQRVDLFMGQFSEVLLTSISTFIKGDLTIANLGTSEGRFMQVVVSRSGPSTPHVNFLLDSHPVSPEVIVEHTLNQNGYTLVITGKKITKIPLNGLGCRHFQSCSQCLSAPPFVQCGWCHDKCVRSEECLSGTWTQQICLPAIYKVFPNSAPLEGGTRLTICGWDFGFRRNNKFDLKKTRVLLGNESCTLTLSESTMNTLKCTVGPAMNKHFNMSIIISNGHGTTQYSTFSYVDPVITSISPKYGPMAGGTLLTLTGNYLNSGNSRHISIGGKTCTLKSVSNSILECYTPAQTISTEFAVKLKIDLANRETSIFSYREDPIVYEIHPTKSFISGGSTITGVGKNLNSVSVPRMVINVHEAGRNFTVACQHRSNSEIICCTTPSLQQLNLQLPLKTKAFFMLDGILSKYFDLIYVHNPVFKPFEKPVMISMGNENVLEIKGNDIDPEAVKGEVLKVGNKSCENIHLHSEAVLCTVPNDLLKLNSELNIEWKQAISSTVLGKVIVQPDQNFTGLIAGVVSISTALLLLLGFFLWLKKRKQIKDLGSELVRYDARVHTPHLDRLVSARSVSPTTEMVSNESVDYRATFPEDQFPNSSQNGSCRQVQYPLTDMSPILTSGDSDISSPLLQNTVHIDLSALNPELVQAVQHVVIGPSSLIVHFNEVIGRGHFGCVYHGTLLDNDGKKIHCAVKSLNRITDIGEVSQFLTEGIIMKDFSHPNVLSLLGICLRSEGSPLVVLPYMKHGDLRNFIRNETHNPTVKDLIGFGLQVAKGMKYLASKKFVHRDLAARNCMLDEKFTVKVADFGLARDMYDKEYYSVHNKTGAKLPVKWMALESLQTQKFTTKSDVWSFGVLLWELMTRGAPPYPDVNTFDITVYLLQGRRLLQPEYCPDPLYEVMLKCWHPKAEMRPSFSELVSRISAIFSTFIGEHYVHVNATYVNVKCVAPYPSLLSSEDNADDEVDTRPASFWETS
Description: as §1

[3] = tested on: MCF-7 (human breast cancer); test: Cell proliferative assay (MTT), MCF-7; assay type: cell-based; details: Homo sapiens, MCF7, MTT assay, MCF-7 cells; read-out: Proliferative Inhibition (IC50, µM) MCF-7
Description: as §2

c-Kit = molecular target: T5, c-Kit (Homo sapiens, UniProt P10721); test: In vitro kinase assay (HTScan c-Kit Kinase Assay Kit); assay type: biochemical; details: for IC50: ATP 10 µM, read-out: Enzyme, IC50, µM c-Kit; for selectivity against c-Kit: relative to c-MET
T5 construct: purchased Cell Signaling Technology, Inc
T5 sequence (P10721 26-976): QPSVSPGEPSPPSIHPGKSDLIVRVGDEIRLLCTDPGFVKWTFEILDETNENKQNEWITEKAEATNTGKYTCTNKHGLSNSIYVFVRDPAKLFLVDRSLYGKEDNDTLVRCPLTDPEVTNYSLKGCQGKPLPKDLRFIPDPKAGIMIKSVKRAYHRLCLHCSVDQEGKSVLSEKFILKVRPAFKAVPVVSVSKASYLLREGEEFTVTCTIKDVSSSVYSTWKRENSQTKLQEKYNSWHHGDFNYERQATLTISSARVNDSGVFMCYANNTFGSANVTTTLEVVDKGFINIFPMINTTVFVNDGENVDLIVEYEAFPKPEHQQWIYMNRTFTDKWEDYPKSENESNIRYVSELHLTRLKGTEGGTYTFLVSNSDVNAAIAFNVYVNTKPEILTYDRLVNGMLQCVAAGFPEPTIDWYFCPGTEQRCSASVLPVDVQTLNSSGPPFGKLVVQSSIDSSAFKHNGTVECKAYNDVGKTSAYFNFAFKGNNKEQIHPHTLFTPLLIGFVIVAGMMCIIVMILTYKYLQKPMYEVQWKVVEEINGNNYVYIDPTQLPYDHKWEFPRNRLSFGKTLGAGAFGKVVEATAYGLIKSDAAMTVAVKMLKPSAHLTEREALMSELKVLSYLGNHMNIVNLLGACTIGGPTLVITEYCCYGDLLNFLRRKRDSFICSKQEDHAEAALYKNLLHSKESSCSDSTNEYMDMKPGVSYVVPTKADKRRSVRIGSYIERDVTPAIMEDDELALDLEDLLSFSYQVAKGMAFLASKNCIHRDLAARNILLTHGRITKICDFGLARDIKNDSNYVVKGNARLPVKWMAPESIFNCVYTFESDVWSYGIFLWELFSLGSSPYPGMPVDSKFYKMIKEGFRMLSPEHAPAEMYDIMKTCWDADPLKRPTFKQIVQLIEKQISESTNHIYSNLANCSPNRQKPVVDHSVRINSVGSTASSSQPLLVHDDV
Description: as §1

[4] = tested on: Hep-G2 (human liver cancer); test: Cell proliferative assay (MTT), Hep-G2; assay type: cell-based; details: Homo sapiens, HepG2, Hep-G2 cells, read-out: Proliferative Inhibition (IC50, µM) Hep-G2
Description: as §2

c-MET [5] = tested on: c-MET; parameters: method as in PMID 19896842, PMID 24485123, PMID 23041435; details: cell-free assays; cited from earlier work

IC50 (VEGFR-2)	IC50 (PDGFR-b)	selectivity against PDGFR-b (PDGFR-b)	melting point	IC50 [1]	IC50 (EGFR)	selectivity against EGFR (EGFR)	IC50 (c-MET [2])	IC50 [3]	IC50 (c-Kit)	selectivity against c-Kit (c-Kit)	IC50 [4]	SMILES	IC50 (c-MET [5])
0.1 ± 0.02 µM	> 10 µM	> 500 fold	180 to 182 °C	4.7 ± 0.11 µM	> 10 µM	> 500 fold	0.02 µM	1.2 ± 0.21 µM	4.3 ± 0.11 µM	215 fold	12.8 ± 0.28 µM	COc1cc2ncnc(Oc3ccc(NC(=O)C4(C(=O)Nc5ccc(F)cc5)CC4)cc3F)c2cc1OC [Compound 13b]	–
0.25 ± 0.02 µM	7.2 ± 0.1 µM	144 fold	171 to 173 °C	4.6 ± 0.03 µM	> 10 µM	> 200 fold	0.05 ± 0.01 µM	2.8 ± 0.23 µM	5.2 ± 0.09 µM	104 fold	1.7 ± 0.04 µM	CC(C)(C)OC(=O)N1CCc2c(sc3ncnc(Oc4ccc(NC(=O)C5(C(=O)Nc6ccc(F)cc6)CC5)cc4F)c23)C1 [Compound 13h, tert-butyl-4-{2-fluoro-4-(1-((4-fluorophenyl)carbamoyl)cyclopropanecarboxamido)phenoxy}-5,6-dihydropyrido(4’,3’:4,5)thieno(2,3-d)pyrimidine-7(8H)-carboxylate]	–

SMILES	IC50 (VEGFR-2)	IC50 (PDGFR-b)	selectivity against PDGFR-b (PDGFR-b)	melting point	IC50 [1]	IC50 (EGFR)	selectivity against EGFR (EGFR)	IC50 (c-MET [2])	IC50 [3]	IC50 (c-Kit)	selectivity against c-Kit (c-Kit)	IC50 [4]	IC50 (c-MET [5])
COc1cc2nccc(Oc3ccc(NC(=O)C4(C(=O)Nc5ccc(F)cc5)CC4)cc3)c2cc1OC [XL184, Cabozantinib, reference compound]	–	–	–	–	–	–	–	–	–	–	–	49.1 ± 0.25 µM	0.0013 µM
